The values below come from patent US20110039762A1, “TARGETED ANTIMICROBIAL MOIETIES” (C3 JIAN, INC., priority 2009, published 2011).

Entries after “also recorded” stand apart in the source; their conditions may differ.

The subject of one test is E. faecalis. The experiment in a line: Kill or inhibit growth/proliferation; morphology, biofilm and growth disruption (Tables 5, 6). Further: test concentration or dose not given here. More on the design: key: A: Peptide aggregates; B: Less hyphal formation; Clumps; Diffuse clumps and small polyps; F: Diffuse growth; H: Thin; I: Growth inhibition; Microcolony formation; Rippled; Small polyps; Thick; W: Halo formation on top, microlonies on bottom. It is filed as cell-based, Enterococcus faecalis.

The subject of the next test is S. pneumoniae. Described as above. More on the design: key: A: Peptide aggregates; B: Less hyphal formation; Clumps; Diffuse clumps and small polyps; F: Diffuse growth; H: Thin; I: Growth inhibition; Microcolony formation; Rippled; Small polyps; Thick; W: Halo formation on top, microlonies on bottom. The format is cell-based, Streptococcus pneumoniae.
The subject of the next test is C. jejuni. The test is described as above. It is filed as cell-based, Campylobacter jejuni. More on the design: key: A: Peptide aggregates; B: Less hyphal formation; Clumps; Diffuse clumps and small polyps; F: Diffuse growth; H: Thin; I: Growth inhibition; Microcolony formation; Rippled; Small polyps; Thick; W: Halo formation on top, microlonies on bottom.
The next test relates to M. luteus. The test is described as above. The format is cell-based, Micrococcus luteus. More on the design: key: A: Peptide aggregates; B: Less hyphal formation; Clumps; Diffuse clumps and small polyps; F: Diffuse growth; H: Thin; I: Growth inhibition; Microcolony formation; Rippled; Small polyps; Thick; W: Halo formation on top, microlonies on bottom.
The next test relates to S. epidermidis. Described as above. It is filed as cell-based, Staphylococcus epidermidis. On the set-up: key: A: Peptide aggregates; B: Less hyphal formation; Clumps; Diffuse clumps and small polyps; F: Diffuse growth; H: Thin; I: Growth inhibition; Microcolony formation; Rippled; Small polyps; Thick; W: Halo formation on top, microlonies on bottom.
A further test deals with microorganisms. The experiment in a line: Peptides having multiple activities (targeting/binding, antimicrobial, growth or phenotype altering). The source says: In certain embodiments, peptides described herein can have multiple activities. Thus for example, a peptide can have both binding/targeting activity and antimicrobial activity. Such peptides can be used, e.g., in a chimeric construct, for any or all of these properties. Thus, for example, a peptide designated “B” in Table 8 can be used as a targeting peptide. If it is also designated G or M it can also be used for antimicrobial activity.

In the next test the test system is MRSA. The test can be described thus: Kill or inhibit growth/proliferation; morphology, biofilm and growth disruption (Tables 5, 6). Further: test concentration or dose not given here. The format is cell-based, Methicillin-resistant Staphylococcus aureus. More on the design: key: A: Peptide aggregates; B: Less hyphal formation; Clumps; Diffuse clumps and small polyps; F: Diffuse growth; H: Thin; I: Growth inhibition; Microcolony formation; Rippled; Small polyps; Thick; W: Halo formation on top, microlonies on bottom.

A further test deals with E. coli. The test is described as above. It is filed as cell-based, Escherichia coli. More on the design: key: A: Peptide aggregates; B: Less hyphal formation; Clumps; Diffuse clumps and small polyps; F: Diffuse growth; H: Thin; I: Growth inhibition; Microcolony formation; Rippled; Small polyps; Thick; W: Halo formation on top, microlonies on bottom.
Test [1] deals with microorganisms (e.g., bacteria, yeasts, fungi). The experiment in a line: Targeting peptide binding to target microorganisms (Table 3). The note with it: preferably 1x PBS; for Target(s): microorganism(s) the targeting peptide binds, peptide binding conducted in aqueous buffers varied by peptide solubility; for Target(s) (microorganisms bound by the targeting peptide): peptide binding in aqueous buffers varied by peptide solubility.
Wherever Organism, effect is given: test concentration or dose not given here.

Regarding DLLKSLLGQDGAKNDEIIEFIKIIMEK [PF-591], the figures for the “Organism, effect” value with E. faecalis, in the test with S. pneumoniae and with C. jejuni were “E. faecalis (A)”, “S. pneumoniae (R)” and “C. jejuni (C)”, respectively.
As to “EILNNNQVIKELTMKYKTQFESNLGGWTARARR [PF-580]”, the “Organism, effect” value with M. luteus is reported as “M. luteus (C)”; with S. epidermidis, “S. epidermidis (M)”; with S. pneumoniae, “S. pneumoniae (C)”; with MRSA, “MRSA (M)”. In the test with microorganisms, the Activities entry is listed as “G B”.
On to MGIIAGIIKVIKSLIEQFTGK [PF-007], for which the “Organism, effect” value in the test on E. faecalis was “E. faecalis (A)”; with M. luteus, “M. luteus (A)”; in the test on S. epidermidis it was “S. epidermidis (A)”; with MRSA, “MRSA (R)”; in the test with E. coli, “E. coli (A)”. Moreover, the Activities result in the test on microorganisms is listed as “G B”.
“PF-059 (TITLKAGIERALHEEVPGVIEVEQVF; Peptide with targeting and/or antimicrobial activity)”: the “Organism, effect” value in the test with C. jejuni is reported as “C. jejuni (C)”.
Take “PF-357: peptide having multiple activities (chain 1 MLTIIIGFIFWTMTLMLGYLIGEREGRKHE; chain 2 MLTIIIGFIFWTMTLMLGYLIGEREGRKHE; Peptide with targeting and/or antimicrobial activity)”: the “Organism, effect” value was “M. luteus (C)” in the test on M. luteus, “S. epidermidis (M)” with S. epidermidis, “S. pneumoniae (M)” with S. pneumoniae and “MRSA (M)” with MRSA. In addition, in the test with microorganisms, the Activities entry is given as “G B”.
Take “PF-392: peptide having multiple activities (chain 1 DPAGCNDIVRKYCK; chain 2 DPAGCNDIVRKYCK; Peptide with targeting and/or antimicrobial activity)”: the “Organism, effect” value is given as “E. faecalis (A)” in the test with E. faecalis, “MRSA (S)” in the test with MRSA and “C. jejuni (A)” in the test on C. jejuni. In the test on microorganisms, the Activities entry is recorded as “G B”. In test [1], the “Target(s)” value is “S. epidermidis; also recorded: B. subtilis; also recorded: S. pneumoniae; also recorded: C. jeikeium; also recorded: C. jejuni”.
Take “PF-393: peptide having multiple activities (chain 1 DLVQSILSEFKKSG; chain 2 DLVQSILSEFKKSG; Peptide with targeting and/or antimicrobial activity)”: the “Organism, effect” value with E. faecalis was “E. faecalis (A)”; with S. epidermidis it was “S. epidermidis (R)”; in the test on S. pneumoniae it was “S. pneumoniae (R)”; with MRSA, “MRSA (C)”; in the test with C. jejuni, “C. jejuni (R)”. For the same substance, the Activities result in the test on microorganisms was “G B”. The “Target(s)” value in test [1] was “S. epidermidis and E. coli and C. albicans and MRSA and S. pneumoniae and C. jejuni”.
As to “PF-431: peptide having multiple activities (VAYAAICWW; Peptide with targeting and/or antimicrobial activity)”, the “Organism, effect” value in the test on E. faecalis is “E. faecalis (R)”; in the test on S. epidermidis, “S. epidermidis (M)”; in the test on S. pneumoniae, “S. pneumoniae (R)”; in the test on MRSA it was “MRSA (C)”; in the test on C. jejuni, “C. jejuni (R)”. In addition, in the test with microorganisms, the Activities result is recorded as “G B”.
Turning to “PF-456: peptide having multiple activities (chain 1 TCVKPRTIN; chain 2 TCVKPRTIN; Peptide with targeting and/or antimicrobial activity)”, the “Organism, effect” value in the test with E. faecalis is given as “E. faecalis (A)”; in the test with C. jejuni, “C. jejuni (A)”. Besides, in the test on microorganisms, the Activities result is “G B”. In addition, in test [1], the “Target(s)” value is “C. albicans and MRSA and E. faecalis and C. jeikeium and C. jejuni”.
Consider “PF-470: peptide having multiple activities (chain 1 PYSDSYATRPHWEQHRAR; chain 2 PYSDSYATRPHWEQHRAR; Peptide with targeting and/or antimicrobial activity)”, for which the results for the “Organism, effect” value in the test with E. faecalis and in the test with C. jejuni were “E. faecalis (A)” and “C. jejuni (A)”, respectively. For the same substance, the Activities entry in the test with microorganisms was “G B”. Also, the “Target(s)” value in [1] is “M. luteus and E. coli and MRSA and E. faecalis and C. jeikeium and C. jejuni”.
Take “PF-581: peptide having multiple activities (WTARARR; Peptide with targeting and/or antimicrobial activity)”: the “Organism, effect” value in the test on E. faecalis is on record as “E. faecalis (A)”; in the test with S. pneumoniae it was “S. pneumoniae (A)”; in the test on MRSA it was “MRSA (A)”; in the test with C. jejuni it was “C. jejuni (A)”. Besides, the Activities entry in the test with microorganisms is “G B”.
For “PF-585: peptide having multiple activities (DYNHLLNVVQDWVNTN; Peptide with targeting and/or antimicrobial activity)”, the “Organism, effect” value in the test with E. faecalis is listed as “E. faecalis (A)”; with S. epidermidis it was “S. epidermidis (S)”; with S. pneumoniae, “S. pneumoniae (R)”; with MRSA, “MRSA (S)”; with C. jejuni it was “C. jejuni (R)”. In the test with microorganisms, the Activities result is on record as “G B”. Besides, the “Target(s)” value in test [1] is “S. epidermidis and E. coli and C. albicans and MRSA and S. pneumoniae and C. jeikeium”.
In the case of “PF-590: peptide having multiple activities (YYQAKLFPLL; Peptide with targeting and/or antimicrobial activity)”, the Activities entry in the test with microorganisms was “G B”. In [1], the “Target(s)” value was “S. epidermidis; also recorded: M. luteus; also recorded: E. coli; also recorded: E. faecalis; also recorded: C. jeikeium”. Further, the “Organism, effect” value in the test on C. jejuni is “C. jejuni (R)”.
On to “PF-599: peptide having multiple activities (LFEIFKPKH; Peptide with targeting and/or antimicrobial activity)”, for which the “Organism, effect” value was “E. faecalis (A)” in the test on E. faecalis; “S. epidermidis (M)” in the test with S. epidermidis; “S. pneumoniae (R)” in the test with S. pneumoniae; “MRSA (C)” with MRSA; “C. jejuni (R)” with C. jejuni. Moreover, the Activities result in the test with microorganisms is reported as “G B”. Besides, in test [1], the “Target(s) (microorganisms bound by the targeting peptide)” value was “S. epidermidis and P. mirabilis and E. coli and C. albicans and MRSA and S. pneumoniae and C. jeikeium”.
On to “PF-601: peptide having multiple activities (YRVTVKALE; Peptide with targeting and/or antimicrobial activity)”, for which the results for the “Organism, effect” value in the test on E. faecalis and in the test on C. jejuni were “E. faecalis (A)” and “C. jejuni (A)”, respectively. The Activities result in the test with microorganisms was “G B”. The “Target(s) (microorganisms bound by the targeting peptide)” value in test [1] is reported as “C. jeikeium”.
In the case of “PF-609: peptide having multiple activities (TEIKLDNNEYLVLNLDDILGILK; Peptide with targeting and/or antimicrobial activity)”, the “Organism, effect” value is “E. faecalis (A)” in the test on E. faecalis, “S. pneumoniae (R)” in the test with S. pneumoniae, “MRSA (C)” in the test on MRSA and “C. jejuni (R)” in the test with C. jejuni. Also, the Activities result with microorganisms was “G B”. For the same substance, the “Target(s) (microorganisms bound by the targeting peptide)” value in test [1] is recorded as “P. mirabilis; also recorded: E. coli; also recorded: S. pneumoniae”.
In the case of “PF-614: peptide having multiple activities (GLDIYA; Peptide with targeting and/or antimicrobial activity)”, the “Organism, effect” value was “E. faecalis (A)” in the test on E. faecalis, “S. epidermidis (M)” in the test on S. epidermidis, “S. pneumoniae (R)” with S. pneumoniae and “C. jejuni (R)” with C. jejuni. For the same substance, the “Target(s) (microorganisms bound by the targeting peptide)” value in test [1] is “S. epidermidis; also recorded: E. coli; also recorded: C. jeikeium”.
